Tests used:
Acetylcholinesterase = target: T1, Acetylcholinesterase (Rattus norvegicus, UniProt P37136); experiment: (§1) Inhibition of rat brain acetylcholinesterase
T1 sequence (P37136 whole entry): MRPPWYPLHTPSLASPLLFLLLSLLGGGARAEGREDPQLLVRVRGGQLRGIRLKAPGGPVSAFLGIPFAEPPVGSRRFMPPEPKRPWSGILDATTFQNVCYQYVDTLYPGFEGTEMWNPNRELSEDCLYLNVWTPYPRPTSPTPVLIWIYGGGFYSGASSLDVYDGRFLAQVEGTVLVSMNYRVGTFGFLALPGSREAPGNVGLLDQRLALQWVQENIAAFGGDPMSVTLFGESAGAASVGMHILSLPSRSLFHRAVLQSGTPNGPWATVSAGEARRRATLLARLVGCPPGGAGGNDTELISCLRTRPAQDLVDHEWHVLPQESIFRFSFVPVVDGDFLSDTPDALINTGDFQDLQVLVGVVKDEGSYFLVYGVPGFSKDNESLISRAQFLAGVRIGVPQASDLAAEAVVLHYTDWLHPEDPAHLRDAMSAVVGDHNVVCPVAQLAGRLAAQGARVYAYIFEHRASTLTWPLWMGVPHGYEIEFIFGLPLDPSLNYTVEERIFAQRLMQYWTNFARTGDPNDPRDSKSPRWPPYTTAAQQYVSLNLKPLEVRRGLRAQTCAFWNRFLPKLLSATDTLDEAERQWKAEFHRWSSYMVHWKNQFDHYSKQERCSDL

[1] = target: T2, Acetylcholinesterase (Rattus norvegicus) (UniProt P37136); experiment: as §1
T2 sequence (whole entry): T1 sequence (P37136 whole entry)

Which IC50 (Acetylcholinesterase) does the source give for c1ccc2c(NCCCCCCCN3CCCCC3)c3c(nc2c1)CCCC3 here?
The IC50 was 20.4 nM.

What about the Imax [1] of the same molecule?
The Imax was 95%.
